According to patent US20110237495A1, “FUNCTIONAL METABOLOMICS COUPLED MICROFLUIDIC CHEMOTAXIS DEVICE AND IDENTIFICATION OF NOVEL CELL MEDIATORS” (The Brigham and Women's Hospital, Inc. Corporate Sponsored …, priority 2008, published 2011):
“Also recorded” adds a separate entry of the source.

Tests used:
[1] = healthy human subjects; cited from earlier work
[2] = system: P. gingivalis-induced periodontitis; experiment: Rabbit periodontitis induced with Porphyromonas gingivalis, RvE1 topical monotherapy; assay type: in vivo
Description: The inventors established a small animal model for the evaluation of disease progression and regeneration after treatment using the rabbit as a model induced with periodontitis using Porphyromonas gingivalis. Briefly, ligatures were tied around the second mandibular premolar of rabbits for 6wk to create an environment where the periodontopatogen P. gingivalis could be retained. […] The right panel is the same preparation but with the jaws defleshed to show the bone underneath. […] FIG. 13 sows that the bone loss extends from the crest of the bone to the depth of the infrabony pocket.
The figures illustrate the new deposition of the cementum (NC) the new periodontal ligament (PL), connective tissue (CT) and bone (B).

[3] = system: peripheral blood monocytes; experiment: RANKL-induced differentiation of peripheral blood monocytes into osteoclasts; assay type: cell-based; conditions: RANKL treatment
Description: This effect is even more pronounced than for PRP (platelet rich plasma) a recognized inhibitor of osteoclast differentiation. Preparations of 5, 10, 20% PRP are compared with RvE1 were quantified in experiments in which peripheral blood monocytes were induced to differentiate into osteoclasts with RANKL treatment.
In order to investigate the etiology of resolvins in bone regeneration, the inventors investigated the effect of RvE1 on osteoclast differentiation. In these experiments, peripheral blood monocytes were induced to differentiate into osteoclasts with RANKL treatment.

[4] = system: leukocyte infiltration in lung tissues; experiment: Hind-limb ischemia-reperfusion-induced second-organ (lung) injury, lung MPO by ELISA; assay type: in vivo, mice; conditions: for reduction of lung MPO concentration (FIG. 7D), mean±SEM: 1 μg i.v. 5 min before reperfusion, lungs collected after 2 h reperfusion; for effect on leukocyte (PMN) infiltration / MPO in lung tissue, in words: 1 μg/mouse i.v.
Procedure: To identify the effects of the resolvins and protectins on inflammation resolution, ischemia-reperfusion induced second-organ injury experiments were designed and are illustrated in FIGS. 7A-D. Mice were anesthetized by intraperitoneal injection of pentobarbital (80 mg kg^−1, Nembutal sodium solution NDC 0074-3778-04). Hind-limb ischemia was initiated using tourniquets consisting of a rubber band placed on each hind limb as in ref.^35. Mice were subjected to hind limb ischemia for 1 h, after which the tourniquets were removed to initiate reflow-reperfusion. Resolvins, related compounds and analogs were each administered at 1 μg/mouse (i.e., DHA, RvD1, RvD1 methyl ester, 17-(R/S)-methyl-RvD1 methyl ester, RvE1, or 19-p-fluorophenoxy-RvE1 methyl ester) in vehicle (5 μl ethanol in 120 μl sterile saline) or vehicle alone. They were administered intravenously to the tail vein ˜5 min before the start of the reperfusion period. At the end of this reperfusion period (2 h), the mice were euthanized with an overdose of anesthetic and the lungs were quickly harvested, frozen in liquid nitrogen, and stored at −80° C. The right lungs were homogenized from individual mice and centrifuged, and the tissue levels of myeloperoxidase (MPO) (a leukocyte marker enzyme) in the resulting supernatants, for each experimental protocol, were determined using a mouse MPO enzyme-linked immunosorbent assay (Hycult biotechnology, Cell Sciences, Uden, The Netherlands).
Briefly, as illustrated in the time-course shown in FIG. 7A, hind-limb ischemia was induced in mice by creating tourniquets using a rubber band on each hind limb. After 1 h, the tourniquets were removed and reperfusion ensued. Test compounds (1 μg of DHA, RvD1, RvE1) in vehicle were administered intravenously 5 min before the start of the reperfusion period. At the end of the reperfusion period (2 h), lungs were collected and MPO concentrations were determined by ELISA. FIGS. 7B and C are representative images from histological analysis. FIG. 9B is a photomicrograph showing a hematoxylin/eosin-stained lung from ischemia/reperfusion second organ injury (control). […] Mean±SEM (n=3-5, control; n=12).
Ischemia/reperfusion is a well-appreciated pathophysiologic mechanism of organ injury and local tissue damage that can be initiated by excessively activated PMN. This system in the mouse, models the second organ injury observed in humans following tourniquet release of vessels in surgery involving, for example, extremities^41, 42. Remote or second organ injury can also occur when blood vessels are occluded, or during certain surgical procedures that create local ischemia and remote organ injury that has many features of rapid, acute inflammation and tissue damage^35. On release of the tourniquet occlusion, reflow is initiated and activated PMN rapidly infiltrate secondary organs, causing damage^35. Here, the inventors evaluated RvD1 in a remote organ injury system, i.e., hind-limb ischemia/reperfusion, to assess whether RvD1's ability to inhibit PMN migration, in vitro, in microchambers (FIGS. 8A-C, 9-11) can be predictive of their effect to reduce PMN mediated tissue and organ damage in vivo. […] The extent of lung tissue injury is associated with PMN activation and organ infiltration^35.

[5] = human plasma; cited from earlier work
human PMN = experiment: Microfluidic chemotaxis device: PMN chemotaxis in IL-8 gradient; assay type: cell-based; conditions: 10 nM (DHA equimolar), PMN captured on P-selectin from a drop of whole blood, n=12
Description: A new microvolume chemotaxis device was designed using polyethylene glycol (PEG) that allows testing the chemotactic function of neutrophils and their responses to these novel lipid mediators immediately after being separated from whole blood within the device. One exemplary embodiment of the device is illustrated in FIGS. 8A-C. In this embodiment, the microvolume chemotaxis device with microstructured valves was fabricated using “lab-on-chip” microfabrication technologies^36. Briefly, two silicon wafers were coated with a 50-μm-thick layer of SU8 photoresist (MicroChem, Newton, Mass.). After exposure to UV light through a mylar mask in a mask, aligner and development following manufacturer recommendations, 50 μm-tall features were produced on top of the silicon wafers. Subsequently, poly (dimethylsiloxane) (PDMS, Dow Corning, Midland, Mich.) was prepared by mixing two components in 10:1 ratio, as recommended by the manufacturer. […]
After assembly, different sections of the device were chemically modified for specific functionalities. […] The surface of the chemotaxis chamber, where neutrophils were captured and assessed for their chemotactic responses, were modified by physical adsorption of P-selectin (10 ng/mL for 30 minutes, R&D Systems, Minneapolis, Minn.) immediately before use. […]

[6] = cited from earlier work
[7] = Metabolic inactivation of RvE1 by mouse lung tissue; assay type: in vitro ADME

In the case of `CC/C=C\C/C=C\C/C=C\CCCCCCCC(=O)O` [α-linolenic acid], the “extent of conversion to DHA” value [1] is listed as 0.05 to 4.0% and the “proportion converted to EPA” value [1] is listed as 0.20 to 8.0%.

With `CC[C@@H](O)/C=C/C=C\C[C@@H](O)/C=C/C=C/C=C\[C@@H](O)CCCC(=O)O` [RvE1, 5S,12R,18R-trihydroxy-6Z,8E,10E,14Z,16E-eicosapentaenoic acid] the “bone regeneration compared with healthy controls (FIG. 13)” value ([2]; animals with induced periodontitis treated with RvE1) was “approximately 80%”, the “histology of regenerated periodontium (undecalcified sections)” value ([2]; area of prior periodontal disease) was “establishment of new cementum, new fiber attachment and new bone and connective tissue” and the “RvE1-induced bone regeneration, in words” value ([2]; p<0.001) was “to pre-disease levels”. For the same compound, the osteoclast differentiation ([3]; PRP 5, 10, 20%, P<0.05) was “significantly inhibited”, the “resorption area (FIG. 15)” value ([3]; increasing amounts) was “significantly decreased” and the “reduction of lung MPO concentration (FIG. 7D), mean±SEM” value [4] was 0±9.3. For the same compound, the “effect on leukocyte (PMN) infiltration / MPO in lung tissue, in words” value [4] was “inactive”.

For `CC/C=C\C/C=C\C/C=C\C/C=C\C/C=C\C/C=C\CCC(=O)O` [DHA, [4Z,7Z,10Z,13Z,16Z,19Z]-docosa-4,7,10,13,16,19-hexaenoic acid, reference compound], the half-life [5] is listed as 20 h, the “reduction of lung MPO concentration (FIG. 7D), mean±SEM” value [4] is listed as 0±7.7 and the “effect on leukocyte (PMN) infiltration / MPO in lung tissue, in words” value [4] is listed as “neither DHA nor native RvE1 gave significant reduction”. The “effect on PMN migration (chemotaxis) in IL-8 gradient” value (human PMN) was “did not stop PMN migration; also recorded: failed to stop neutrophil chemotaxis”.

For `CC/C=C\C/C=C\C/C=C\C/C=C\C/C=C\CCCC(=O)O` [EPA, [5Z,8Z,11Z,14Z,17Z-icosa-5,8,11,14,17-pentaenoic acid], the half-life [5] is listed as 67 h.

In the case of `CCC(=O)/C=C/C=C\C[C@@H](O)/C=C/C=C/C=C\[C@@H](O)CCCC(=O)O` [18-oxo-RvE1], the “activity of the lung metabolite” value [6] is given as “devoid of activity”.

With `COC(=O)CCC[C@H](O)\C=C/C=C/C=C/[C@H](O)C/C=C\C=C\[C@@H](O)COc1ccc(F)cc1` [19-p-fluorophenoxy-RvE1-Me, 19-p-fluorophenoxy-RvE1 methyl ester] the “metabolic inactivation (conversion to 18-oxo) in mouse lung tissue” value [7] was “prevents this metabolic inactivation”, the “percent reduction of MPO found in lungs (FIG. 11), mean±SEM” value ([4]; 1 μg i.v. in vehicle, ischemia-reperfusion) was 19.7 ±7.7% and the “effect on leukocyte (PMN) infiltration / MPO in lung tissue, in words” value [4] was “significantly reduced leukocyte infiltration”.
